Tested on: TPM3-NTRK1-wt IC50 / primary target (e.g. CD74-ROS1-wt) IC50, Ba/F3 cells
Test: Cell assay TRKA selectivity (TRKA potency divided by primary target potency)
Type: cell-based
Conditions: for TPM3-NTRK1-wt/CD74-ROS1-G2032R: TRKA selectivity ratio: TPM3-NTRK1-wt IC50 / CD74-ROS1-G2032R IC50, Ba/F3 cells; for TPM3-NTRK1-wt/CD74-ROS1-wt: TRKA selectivity ratio: TPM3-NTRK1-wt IC50 / CD74-ROS1-wt IC50, Ba/F3 cells; for TPM3-NTRK1-wt/EML4-ALK-L1196M-G1202R: TRKA selectivity ratio: TPM3-NTRK1-wt IC50 / EML4-ALK-L1196M-G1202R IC50, Ba/F3 cells; for TPM3-NTRK1-wt/EML4-ALK-wt: TRKA selectivity ratio: TPM3-NTRK1-wt IC50 / EML4-ALK-wt IC50, Ba/F3 cells
Summary of the method: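 Ratio of TRKA to primary-target cellular IC50 (e.g. TPM3-NTRK1-wt/CD74-ROS1-wt), grouped into bins A >30, B >10, C ≥1, D <1. Each IC50 came from engineered Ba/F3 fusion lines grown without IL-3, dosed for 72 h and read as CellTiter-Glo luminescence, with a four-parameter logistic fit.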

| SMILES | TPM3-NTRK1-wt/CD74-ROS1-G2032R | TPM3-NTRK1-wt/CD74-ROS1-wt | TPM3-NTRK1-wt/EML4-ALK-L1196M-G1202R | TPM3-NTRK1-wt/EML4-ALK-wt |
| --- | --- | --- | --- | --- |
| CCc1noc2c1-c1cnc(N)c(c1)O[C@H](C)c1cc(F)ccc1-c1nn(C)cc1C2 [Example 19, (19R)-3-ethyl-16-fluoro-10,19-dimethyl-5,20-dioxa-4,10,11,23-tetraazapentacyclo[19.3.1.0^2,^6.0^8,^12.0^13,^18]pentacosa-1(24),2(6),3,8,11,13,15,17,21(25),22-decaen-22-amine] | A (bin A for very high selectivity, ratio>30-fold) | A (bin A for very high selectivity, ratio>30-fold) | C (bin C for moderate selectivity, ratio≥1) | A (bin A for very high selectivity, ratio>30-fold) |
| C[C@H]1Oc2cc(cnc2N)-c2c(nn(C)c2C#N)Cc2ccnn2-c2ccc(F)cc21 [Example 169, (19R)-22-amino-16-fluoro-4,19-dimethyl-20-oxa-4,5,11,12,23-pentaazapentacyclo[19.3.1.0^2,^6.0^8,^12.0^13,^18]pentacosa-1(24),2,5,8,10,13,15,17,21(25),22-decaene-3-carbonitrile] | C (bin C for moderate selectivity, ratio≥1) | A (bin A for very high selectivity, ratio>30-fold) | D (bin D for low selectivity, ratio<1) | A (bin A for very high selectivity, ratio>30-fold) |
| COc1cc2n(n1)-c1ccc(F)cc1[C@@H](C)Oc1cc(cnc1N)-c1c(nnn1CC1CC1)C2 [Example 144, (19R)-3-(cyclopropylmethyl)-16-fluoro-10-methoxy-19-methyl-20-oxa-3,4,5,11,12,23-hexaazapentacyclo[19.3.1.0^2,^6.0^8,^12.0^13,^18]pentacosa-1(24),2(6),4,8,10,13,15,17,21(25),22-decaen-22-amine] | A (bin A for very high selectivity, ratio>30-fold) | A (bin A for very high selectivity, ratio>30-fold) | B (bin B for high selectivity, ratio>10-fold) | A (bin A for very high selectivity, ratio>30-fold) |
| C[C@H]1Oc2cc(cnc2N)-c2c(nnn2CC2CC2)Cc2cc(Cl)nn2-c2ccc(F)cc21 [Example 108, (19R)-10-chloro-3-(cyclopropylmethyl)-16-fluoro-19-methyl-20-oxa-3,4,5,11,12,23-hexaazapentacyclo[19.3.1.0^2,^6.0^8,^12.0^13,^18]pentacosa-1(24),2(6),4,8,10,13,15,17,21(25),22-decaen-22-amine] | A (bin A for very high selectivity, ratio>30-fold) | A (bin A for very high selectivity, ratio>30-fold) | B (bin B for high selectivity, ratio>10-fold) | A (bin A for very high selectivity, ratio>30-fold) |
| CCn1nc(Cl)c2c1-c1cnc(N)c(c1)O[C@H](C)c1cc(F)ccc1-n1nc(C)cc1C2 [Example 76, (19R)-5-chloro-3-ethyl-16-fluoro-10,19-dimethyl-20-oxa-3,4,11,12,23-pentaazapentacyclo[19.3.1.0^2,^6.0^8,^12.0^13,^18]pentacosa-1(24),2(6),4,8,10,13,15,17,21(25),22-decaen-22-amine] | A (bin A for very high selectivity, ratio>30-fold) | A (bin A for very high selectivity, ratio>30-fold) | B (bin B for high selectivity, ratio>10-fold) | A (bin A for very high selectivity, ratio>30-fold) |
| CC1Oc2cc(cnc2N)-c2c(cnn2CC(F)F)Cn2ccnc2-c2ccc(F)cc21 (stereo not shown) [Example 40, 3-(2,2-difluoroethyl)-16-fluoro-19-methyl-20-oxa-3,4,8,11,23-pentaazapentacyclo[19.3.1.0^2,^6.0^8,^12.0^13,^18]pentacosa-1(24),2(6),4,9,11,13,15,17,21(25),22-decaen-22-amine] | A (bin A for very high selectivity, ratio>30-fold) | A (bin A for very high selectivity, ratio>30-fold) | A (bin A for very high selectivity, ratio>30-fold) | A (bin A for very high selectivity, ratio>30-fold) |
| Cc1cc2n(n1)-c1ccc(F)cc1COc1cc(cnc1N)-c1c(cnn1CC1CC1)C2 [Example 126, 3-(cyclopropylmethyl)-16-fluoro-10-methyl-20-oxa-3,4,11,12,23-pentaazapentacyclo[19.3.1.0^2,^6.0^8,^12.0^13,^18]pentacosa-1(24),2(6),4,8,10,13,15,17,21(25),22-decaen-22-amine] | A (bin A for very high selectivity, ratio>30-fold) | A (bin A for very high selectivity, ratio>30-fold) | A (bin A for very high selectivity, ratio>30-fold) | A (bin A for very high selectivity, ratio>30-fold) |
| CCn1ncc2c1-c1cnc(N)c(c1)OCc1cc(F)ccc1-c1nc(C)sc1C2 [Example 89, 3-ethyl-16-fluoro-10-methyl-20-oxa-9-thia-3,4,11,23-tetraazapentacyclo[19.3.1.0^2,^6.0^8,^12.0^13,^18]pentacosa-1(24),2(6),4,8(12),10,13,15,17,21(25),22-decaen-22-amine] | A (bin A for very high selectivity, ratio>30-fold) | A (bin A for very high selectivity, ratio>30-fold) | B (bin B for high selectivity, ratio>10-fold) | A (bin A for very high selectivity, ratio>30-fold) |
| C[C@H]1Oc2cc(cnc2N)-c2c(C#N)cnn2Cc2cccnc2-c2ccc(F)cc21 [Example 14, (20R)-23-amino-17-fluoro-20-methyl-21-oxa-5,6,12,24-tetraazapentacyclo[20.3.1.0^2,^6.0^8,^13.0^14,^19]hexacosa-1(25),2,4,8(13),9,11,14,16,18,22(26),23-undecaene-3-carbonitrile] | B (bin B for high selectivity, ratio>10-fold) | A (bin A for very high selectivity, ratio>30-fold) | C (bin C for moderate selectivity, ratio≥1) | A (bin A for very high selectivity, ratio>30-fold) |
| C[C@H]1Oc2cc(cnc2N)-c2c(C#N)ncn2Cc2ccncc2-c2ccc(F)cc21 [Example 11, (20R)-23-amino-17-fluoro-20-methyl-21-oxa-4,6,11,24-tetraazapentacyclo[20.3.1.0^2,^6.0^8,^13.0^14,^19]hexacosa-1(25),2,4,8(13),9,11,14,16,18,22(26),23-undecaene-3-carbonitrile] | A (bin A for very high selectivity, ratio>30-fold) | A (bin A for very high selectivity, ratio>30-fold) | C (bin C for moderate selectivity, ratio≥1) | A (bin A for very high selectivity, ratio>30-fold) |
| CCn1ncc2c1-c1cnc(N)c(n1)OC(C)c1cc(F)ccc1-c1nccn1C2 (stereo not shown) [Example 163, 3-ethyl-16-fluoro-19-methyl-20-oxa-3,4,8,11,23,25-hexaazapentacyclo[19.3.1.0^2,^6.0^8,^12.0^13,^18]pentacosa-1(24),2(6),4,9,11,13,15,17,21(25),22-decaen-22-amine] | A (bin A for very high selectivity, ratio>30-fold) | A (bin A for very high selectivity, ratio>30-fold) | C (bin C for moderate selectivity, ratio≥1) | A (bin A for very high selectivity, ratio>30-fold) |
| CCn1ncc2c1-c1cnc(N)c(c1)O[C@H](C)c1cc(F)ccc1-c1nocc1C2 [Example 99, (19R)-3-ethyl-16-fluoro-19-methyl-10,20-dioxa-3,4,11,23-tetraazapentacyclo[19.3.1.0^2,^6.0^8,^12.0^13,^18]pentacosa-1(24),2(6),4,8,11,13,15,17,21(25),22-decaen-22-amine] | A (bin A for very high selectivity, ratio>30-fold) | A (bin A for very high selectivity, ratio>30-fold) | C (bin C for moderate selectivity, ratio≥1) | B (bin B for high selectivity, ratio>10-fold) |
| CCn1ncc2c1-c1cnc(N)c(c1)O[C@H](C)c1cc(F)ccc1-c1ncccc1C2 [Example 3, (20R)-3-ethyl-17-fluoro-20-methyl-21-oxa-3,4,12,24-tetraazapentacyclo[20.3.1.0^2,^6.0^8,^13.0^14,^19]hexacosa-1(25),2(6),4,8(13),9,11,14,16,18,22(26),23-undecaen-23-amine] | A (bin A for very high selectivity, ratio>30-fold) | – | B (bin B for high selectivity, ratio>10-fold) | A (bin A for very high selectivity, ratio>30-fold) |
| Cc1nc(C#N)c2n1Cc1cccnc1-c1ccc(F)cc1[C@@H](C)Oc1cc-2cnc1N [Example 18, (20R)-23-amino-17-fluoro-5,20-dimethyl-21-oxa-4,6,12,24-tetraazapentacyclo[20.3.1.0^2,^6.0^8,^13.0^14,^19]hexacosa-1(25),2,4,8(13),9,11,14,16,18,22(26),23-undecaene-3-carbonitrile] | A (bin A for very high selectivity, ratio>30-fold) | A (bin A for very high selectivity, ratio>30-fold) | A (bin A for very high selectivity, ratio>30-fold) | A (bin A for very high selectivity, ratio>30-fold) |

Reference: patent US11667649B2, “Heteroaromatic macrocyclic ether chemotherapeutic agents” (Nuvalent, Inc., priority 2020, dated 2023)
